Experimental data reported in patent publication US12414958B2, “Medicament and use thereof for treating bacterial infections involving biofilm” (Debiopharm International S.A., priority 2019, dated 2025).
Several values for one entry are separate records, joined by “and”; a condition that tells them apart may be missing. Identical values can stand only once.

Test system: S. aureus ATCC 43300 (MRSA)
Assay: Mouse tissue cage model of MRSA infection, 5.5-day treatment (Example 2)
Type: in vivo, Staphylococcus aureus
Conditions: for Cure rate (%) / adherent bacteria reduction from baseline (mean±SD): 24-h biofilm; for Cure rate (%) / adherent bacteria reduction from baseline (mean±SD) / Planktonic day 3 Δlog (individual animal): 5.5-day treatment; for Cure rate (%): cages without growth / total cages; for adherent bacteria reduction from baseline (mean±SD): n=3, given as positive reduction; for Adherent Δlog (individual animal) / Adherent Mean: medium after sonication of explanted tissue cages, day 9 vs day 1; for Adherent Mean: group mean; for day on which bactericidal effect (mean reduction of bacterial load by ≥3 Log10) on planktonic bacteria was exerted: planktonic bacteria in tissue cage fluid, time points day 3, 6, 9; for Planktonic day 3 Mean / Planktonic day 6 Mean / Planktonic day 9 Mean / Planktonic day 3 Δlog (individual animal) / Planktonic day 9 Δlog (individual animal) / Planktonic day 6 Δlog (individual animal): tissue cage fluid; for Planktonic day 3 Mean / Planktonic day 6 Mean / Planktonic day 9 Mean: group mean Δlog from baseline (day 1); for Planktonic day 3 Δlog (individual animal) / Planktonic day 9 Δlog (individual animal) / Planktonic day 6 Δlog (individual animal): reduction from baseline (day 1); for Planktonic day 3 Δlog (individual animal): C57BL/6 mice; for Planktonic day 9 Δlog (individual animal): 3 days after end of treatment
Excerpt: The purpose of this study was to evaluate the efficacy of Debio 1450 BES alone and in combination with Daptomycin (DAP) in the mouse tissue cage model of implant-associated infections caused by methicillin resistant Staphylococcus (S.) aureus (MRSA). The efficacy against 24-h biofilm of S. aureus ATCC 43300 (MRSA) was investigated and compared to the standard of care combination of rifampicin (RIF) and DAP at the human equivalent doses. Employing a small initial inoculum (ca. 300 CFU/cage) together with a 24-h biofilm allowed to simulate clinical settings of an acute implant infection and/or surgical debridement.
The tissue cage model of prosthetic joint infections is very well-established and closely mimics the human prosthetic joint infections. This model is based on subcutaneous insertion of tissue cages followed by experimental infection of the foreign body by injection of bacterial inoculum into the cages.
In brief, one sterile polytetrafluorethylene (Teflon) cylinder (32×10 mm), perforated by 130 regularly spaced holes of 1 mm diameter (tissue cages; Angst-Pfister AG, Zürich) was aseptically implanted subcutaneously into the back of C57BL/6 mice (minimum weight 20 g). Experiments were started after complete wound healing (minimum 2 weeks after surgery). For the efficacy study presented here the cages in all animals were infected with around 300 colony-forming units (CFU) of the MRSA strain ATCC 43300 per cage and the biofilm were developed for 24 h before the beginning of the treatment.
The animals received antibiotic treatment i.p. (Debio 1450 BES and DAP) or sc (RIF) on day 1, 2, 3, 4, 5, and 6 (only the morning administration on day 6). One group received only 5% glucose and served as infected, untreated control group (vehicle). […] Debio 1450 and vehicle were administered bid, and qdam on day 6. DAP and RIF were administered qdam. The 50 mg/kg dose of Debio 1450 BES was selected as the HED. The DAP dose of […] was chosen as it closely correlates with the human clinical dosage of 10 mg/kg once daily. The RIF dose of 25 mg/kg is among the most commonly used in the treatment of experimental biofilm infections.
Five to 6 days before infection, TCF is aspirated to ascertain the sterility of implanted cages by TCF plating on blood agar plates. […] In addition, the number of bacteria in TCF was determined on day 3 (before the first injection that day), on day 6 (before last treatment), and on day 9 (before explantation of the cages) to evaluate the treatment efficacy against planktonic bacteria. The mouse number and bacterial count for the given cage were reported to analyse the time course of antibacterial activity of the tested drugs. The efficacy against biofilm-embedded bacteria was assessed qualitatively and quantitatively following aseptic explantation of the tissue cages 3 days after the completion of treatment. The 3 days of resting period will help to avoid the antibiotic carryover effect. Upon explantation, cages were washed twice with phosphate buffered saline (PBS) (Lot #5060914) and immediately transferred into 5 mL 0.9% NaCl (Lot #L161619 or L162658). Following 30 s vortexing, sonication (3 min at 130 W), and an additional 30 s vortexing step the numbers of bacteria dispersed from biofilm was determined by plating. The sonicated cages were washed once with PBS, transferred into 5 mL TSB (Lot #0286463), and incubated for 48 h at 37° C., with an additional vortexing step after 24 h of incubation. After the incubation, tubes were vortexed again and bacterial regrowth was assessed visually. In addition, 100 μL of each culture was plated on blood agar plates to ascertain the regrowth. A positive culture was defined as a treatment failure. The efficacy of treatment against adherent bacteria is expressed as the cure rate (in percent), defined as the number of cages without growth divided by the total number of cages in the individual treatment group.

SMILES | Cure rate (%) | adherent bacteria reduction from baseline (mean±SD) | Adherent Δlog (individual animal) | Adherent Mean | day on which bactericidal effect (mean reduction of bacterial load by ≥3 Log10) on planktonic bacteria was exerted | Planktonic day 3 Mean | Planktonic day 6 Mean | Planktonic day 9 Mean | Planktonic day 3 Δlog (individual animal) (listed as RIF) | Planktonic day 9 Δlog (individual animal) (listed as RIF) | Planktonic day 6 Δlog (individual animal) (listed as RIF) | Adherent Δlog (individual animal) (listed as DAP) | Planktonic day 3 Δlog (individual animal) (listed as DAP) | Planktonic day 9 Δlog (individual animal) (listed as DAP) | Planktonic day 6 Δlog (individual animal) (listed as DAP) | Planktonic day 6 Δlog (individual animal) | Planktonic day 3 Δlog (individual animal) | Planktonic day 9 Δlog (individual animal)
CO[C@H]1/C=C/O[C@@]2(C)Oc3c(C)c(O)c4c(O)c(c(/C=N/N5CCN(C)CC5)c(O)c4c3C2=O)NC(=O)/C(C)=C\C=C\[C@H](C)[C@H](O)[C@@H](C)[C@@H](O)[C@@H](C)[C@H](OC(C)=O)[C@@H]1C [Rifampicin] | 100% | 3.37±0 log 10 CFU/mL | −3.4 log 10 CFU/mL | −3.37 log 10 CFU/mL | 3 day | −4.53 Log10 | −4.53 Log10 | −4.53 Log10 | −4.08 Log10 and −6.73 Log10 and −3.5 Log10 and −3.4 Log10 and −4.9 Log10 | −4.08 Log10 and −6.73 Log10 and −3.5 Log10 and −3.4 Log10 and −4.9 Log10 | −4.08 Log10 and −6.73 Log10 and −3.5 Log10 and −3.4 Log10 and −4.9 Log10 |  |  |  |  |  |  | 
CCCCCCCCCC(=O)N[C@@H](Cc1c[nH]c2ccccc12)C(=O)N[C@H](CC(N)=O)C(=O)N[C@@H](CC(=O)O)C(=O)N[C@@H]1C(=O)NCC(=O)N[C@@H](CCCN)C(=O)N[C@@H](CC(=O)O)C(=O)N[C@H](C)C(=O)N[C@@H](CC(=O)O)C(=O)NCC(=O)N[C@H](CO)C(=O)N[C@@H]([C@H](C)CC(=O)O)C(=O)N[C@@H](CC(=O)c2ccccc2N)C(=O)O[C@@H]1C [Daptomycin] | 33% |  |  | −3.91 log 10 CFU/mL | 3 day | −3.10 Log10 | −4.91 Log10 | −3.60 Log10 |  |  |  | −4.48 log 10 CFU/mL (2×) and −2.78 log 10 CFU/mL | −2.41 Log10 and −4.79 Log10 and −0.67 Log10 and −5.15 Log10 and −2.91 Log10 and −2.70 Log10 | −1.07 Log10 and −4.79 Log10 and 0.73 Log10 and −5.15 Log10 and −5.95 Log10 and −5.38 Log10 | −5.72 Log10 and −4.79 Log10 and −2.46 Log10 and −5.15 Log10 and −5.95 Log10 and −5.38 Log10 |  |  | 
Cc1c(CN(C)C(=O)/C=C/c2cnc3c(c2)CCC(=O)N3COP(=O)(O)O)oc2ccccc12 [Debio 1450, {6-[(1E)-3-{methyl [(3-methyl-1-benzofuran-2-yl)methyl]amino}-3-oxoprop-1-en-1-yl]-2-oxo-3,4-dihydro-1,8-naphthyridin-1 (2H)-yl} methyl dihydrogen phosphate] | 50% | 3.81±1.15 log 10 CFU/mL | −4.48 log 10 CFU/mL (2×) and −2.48 log 10 CFU/mL | −3.81 log 10 CFU/mL | 6 day | −2.62 Log10 | −4.45 Log10 | −3.90 Log10 |  |  |  |  |  |  |  | −3.24 Log10 and −2.69 Log10 and −5.64 Log10 and −5.10 Log10 and −4.91 Log10 and −5.09 Log10 | −1.42 Log10 and −1.40 Log10 and −2.10 Log10 and −5.10 Log10 and −1.93 Log10 and −3.79 Log10 | −5.85 Log10 and −3.41 Log10 and −1.32 Log10 and −5.10 Log10 and −4.91 Log10 and −2.79 Log10
